Source: PMC5668434, “Modulation of telomere protection by the PI3K/AKT pathway” (Nature Communications, 2017)
Like-named read-outs stand apart in the source and are kept apart here.

Legend:
PI3K (p110α) = target: T1, PI3K (p110α) (Homo sapiens, UniProt P42336); experiment: PI3K alpha biochemical assay (ADP Hunter Plus); conditions: internal data; read-out: PI3Kα IC50
T1 construct: purchased Cama Biosciences (sic; Carna Biosciences) #07CBS-0402A

mTOR (FRAP1) = target: T2, mTOR (FRAP1) (Homo sapiens, UniProt P42345); experiment: mTOR biochemical assay (LanthaScreen)
T2 construct: purchased ThermoFisher PV4753
T2 sequence (P42345 1360-2549 limits assumed): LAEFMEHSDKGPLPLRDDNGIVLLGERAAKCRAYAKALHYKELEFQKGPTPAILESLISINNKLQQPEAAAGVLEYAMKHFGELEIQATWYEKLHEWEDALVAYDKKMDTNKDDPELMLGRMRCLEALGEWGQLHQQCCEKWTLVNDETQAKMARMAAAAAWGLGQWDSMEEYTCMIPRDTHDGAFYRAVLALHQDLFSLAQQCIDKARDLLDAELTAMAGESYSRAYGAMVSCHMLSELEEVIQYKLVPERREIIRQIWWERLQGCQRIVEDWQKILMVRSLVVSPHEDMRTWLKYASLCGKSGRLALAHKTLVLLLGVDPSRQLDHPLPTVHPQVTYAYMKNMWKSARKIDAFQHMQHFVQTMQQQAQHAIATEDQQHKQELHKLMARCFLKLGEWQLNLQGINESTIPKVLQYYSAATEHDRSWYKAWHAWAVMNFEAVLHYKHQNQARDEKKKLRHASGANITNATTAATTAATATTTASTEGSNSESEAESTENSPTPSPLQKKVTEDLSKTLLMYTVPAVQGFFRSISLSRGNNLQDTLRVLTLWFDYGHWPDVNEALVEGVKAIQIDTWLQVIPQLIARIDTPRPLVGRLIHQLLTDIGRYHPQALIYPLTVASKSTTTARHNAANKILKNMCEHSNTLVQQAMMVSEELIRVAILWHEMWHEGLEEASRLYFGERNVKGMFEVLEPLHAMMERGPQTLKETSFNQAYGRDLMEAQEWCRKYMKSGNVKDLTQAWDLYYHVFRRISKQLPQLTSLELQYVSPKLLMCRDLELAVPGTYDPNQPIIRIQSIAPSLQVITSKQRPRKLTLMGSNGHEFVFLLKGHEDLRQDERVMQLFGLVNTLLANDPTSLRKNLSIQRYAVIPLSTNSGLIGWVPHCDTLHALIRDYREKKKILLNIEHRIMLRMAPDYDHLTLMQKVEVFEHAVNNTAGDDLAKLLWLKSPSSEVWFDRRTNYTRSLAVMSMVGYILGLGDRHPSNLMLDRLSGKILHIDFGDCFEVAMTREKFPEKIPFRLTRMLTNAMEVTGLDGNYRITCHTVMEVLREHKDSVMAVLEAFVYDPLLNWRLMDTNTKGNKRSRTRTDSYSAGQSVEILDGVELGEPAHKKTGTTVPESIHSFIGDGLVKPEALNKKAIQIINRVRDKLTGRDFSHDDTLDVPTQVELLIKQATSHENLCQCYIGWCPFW

[1] = tested on: p-AKT S473 in CHA-9.3 mouse lung cancer cell line; experiment: Western blot of AKT phosphorylation at Ser473 in CHA-9.3 cells; format: cell-based; conditions: for p-AKT S473 inhibition (in words): 10 μM time course; for inhibition at 10 µM: Mus musculus
Protocol: These new chemical probes were prepared by replacement of a single key oxygen atom from the morpholine moiety by a methylene group, generating the piperidine derivatives ETP-51259 and ETP-50952 (Fig. 1a). To assess their PI3K cellular activity, we measured phosphorylation of residue Ser473 in AKT (p-AKT S473), a PI3K downstream target[61]–[63], by western blot analysis. To this end, we used the CHA-9.3 mouse lung cancer cell line previously generated by us[39]. […] Of note, the inhibitory activity of ETP-47037 was more prolonged than that of ETP-47228. Thus, ETP-47037 mediated p-AKT S473 inhibition was maintained during the 24-hour treatment while the ETP-47228 mediated inhibition decreased 35% after 24 h as compared to 1-h treatment but still was able to inhibit the pathway above 50% (Fig. 1c).
(§1) For detection of AKT, PRAS40 (T246) and pS6 in CHA9.3 cells, untreated control (DMSO) or treated with the indicated inhibitors, were lysed in RIPA buffer supplemented with 100 mM pefablock (Roche Diagnostics) and protease inhibitor cocktail (Roche Molecular Biochemicals). Proteins were resolved on 10% SDS-PAGE, and transferred to nitrocellulose membrane (Amersham^TM Protan^TM 0.2 µm nNC). Membranes were incubated with antibodies against phospho-AKT (Ser473), AKT, phospo-S6 (Ser 235/236), and S6Ribosomal from Cell Signaling, phospo-PRAS40 (Thr246) from BIOSURCE and anti α-tubulin form Sigma, overnight at 4 °C. After washing, blots were incubated with secondary antibody: Alexa Fluor 680 goat anti-rabbit IgG (Invitrogen) or anti-mouse IgG DyLight 800 conjugated (Thermo Scientific), and visualized using an Odyssey infrared imaging system (Li-Cor Biosciences).

[2] = tested on: TRF1 foci in CHA-9.3 mouse lung tumor cell line; experiment: TRF1 foci immunofluorescence in CHA-9.3 cells; format: cell-based; conditions: for Inhibition of TRF1 foci (in words): 10 μM (GSK-2126458 1.0 μM), 24 h, CHA-9.3; for TRF1 levels as compared to bortezomib/DMSO-treated control cells: 10 μM plus bortezomib 50 nM, CHA 9-3
[3] = tested on: TRF1 protein in CHA 9-3 nuclear extracts; experiment: Western blot of nuclear TRF1 in CHA 9-3 cells; format: cell-based, mouse; conditions: 10 μM
Protocol: Blots were incubated with the primary antibodies anti-TRF1 1:500 (home-made monoclonal Rat, CNIO; TRF-78, ABCAM, ab10579) and with anti-SMC1 1:2000 (Bethyl Laboratories #A300-055A) as loading control. For nuclear protein preparation, the Nuclear/Cytosol Fractionation Kit (K266-100, BioVision) was used according to the manufactures protocol.

[4] = tested on: PRAS40 (T246) and pS6 (S235/236) in CHA 9-3 cells; experiment: Western blot of PI3K downstream targets PRAS40 (T246) and pS6 (S235/236); format: cell-based, mouse; conditions: 10 μM
Protocol: We also determined the effect of ETP-47037 and ETP-47228 in the inhibition of other PI3K downstream targets, PRAS40 (T246), and pS6 (S235/236)[64], [65] (Supplementary Fig. 1).
as §1
Supplementary Figure 1. Modulation of PI3K/AKT downstream targets by ETP-47037 and ETP-47228. Representative Western blot images of PRAS40 phosphorylation at T246 and of P6 at S235/236 in CHIA 9-3 lung cancer cell line treated for 24 hours with 10 µM of ETP-47037 or with 10 µM of ETP-47228 at different time points of the treatment. […]

[5] = tested on: panel of 24 kinases representing the human kinome; experiment: ProQinase 24 kinase selectivity panel (whole panel); format: biochemical; conditions: 1 µM
Protocol: The kinase selectivity of the inhibitors used here was ensured in order to discard potential off-targets effects contributing to the observed TRF1 modulation.
(§2) Supplementary Table 1: Kinase selectivity profile of ETP-47037 and ETP-47228 at 1 µM. Selectivity against protein kinases was determined from evaluation of compounds at 1µM in ProQinase’s 24 selected panel that represents the ACG, STE, TKL, TK, CMGC CAMK and CK1 kinase families.

CHK1 = target: T3, CHK1 (Homo sapiens, UniProt O14757); experiment: ProQinase kinase panel; format: biochemical; conditions: read-out: Inh (%) at 1µM, CHK1
T3 construct: purchased ProQinase
T3 sequence (O14757 whole entry): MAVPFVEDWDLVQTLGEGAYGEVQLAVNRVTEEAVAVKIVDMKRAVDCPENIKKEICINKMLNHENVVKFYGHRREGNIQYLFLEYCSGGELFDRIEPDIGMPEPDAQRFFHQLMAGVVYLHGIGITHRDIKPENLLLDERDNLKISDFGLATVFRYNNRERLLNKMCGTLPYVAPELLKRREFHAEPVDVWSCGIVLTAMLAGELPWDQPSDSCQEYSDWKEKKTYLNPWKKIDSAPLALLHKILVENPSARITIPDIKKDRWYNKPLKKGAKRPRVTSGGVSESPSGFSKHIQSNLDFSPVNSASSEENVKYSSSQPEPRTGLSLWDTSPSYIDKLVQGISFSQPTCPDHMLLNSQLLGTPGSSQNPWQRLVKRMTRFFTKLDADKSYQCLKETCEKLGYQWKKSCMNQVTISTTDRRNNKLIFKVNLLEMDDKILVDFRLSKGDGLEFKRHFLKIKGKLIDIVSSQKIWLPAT
Protocol: as §2

CHK2 = target: T4, CHK2 (Homo sapiens, UniProt O96017); experiment: ProQinase kinase panel; format: biochemical; conditions: read-out: Inh (%) at 1µM, CHK2
T4 construct: purchased ProQinase
T4 sequence (O96017 whole entry): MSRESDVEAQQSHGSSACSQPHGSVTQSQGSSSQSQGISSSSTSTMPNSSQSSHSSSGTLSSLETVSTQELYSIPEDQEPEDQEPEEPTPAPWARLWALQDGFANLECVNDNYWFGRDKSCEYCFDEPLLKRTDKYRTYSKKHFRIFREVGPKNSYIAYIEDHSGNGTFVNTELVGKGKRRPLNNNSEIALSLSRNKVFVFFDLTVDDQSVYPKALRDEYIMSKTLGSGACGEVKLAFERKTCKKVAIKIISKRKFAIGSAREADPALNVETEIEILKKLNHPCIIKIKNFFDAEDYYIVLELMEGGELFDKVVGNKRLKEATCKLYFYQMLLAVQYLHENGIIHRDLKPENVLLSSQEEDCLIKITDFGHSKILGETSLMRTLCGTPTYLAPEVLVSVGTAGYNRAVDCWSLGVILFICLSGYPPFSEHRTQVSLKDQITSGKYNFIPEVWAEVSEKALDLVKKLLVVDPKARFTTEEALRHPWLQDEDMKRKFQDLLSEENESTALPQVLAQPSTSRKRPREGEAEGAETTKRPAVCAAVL
Protocol: as §2

FAK = target: T5, FAK (Homo sapiens, UniProt Q05397); experiment: ProQinase kinase panel; format: biochemical; conditions: read-out: Inh (%) at 1µM, FAK
T5 construct: purchased ProQinase
Protocol: as §2

IGF1-R = target: T6, IGF1-R (Homo sapiens, UniProt P08069); experiment: ProQinase kinase panel; format: biochemical; conditions: read-out: Inh (%) at 1µM, IGF1-R
T6 construct: purchased ProQinase
T6 sequence (P08069 31-1367): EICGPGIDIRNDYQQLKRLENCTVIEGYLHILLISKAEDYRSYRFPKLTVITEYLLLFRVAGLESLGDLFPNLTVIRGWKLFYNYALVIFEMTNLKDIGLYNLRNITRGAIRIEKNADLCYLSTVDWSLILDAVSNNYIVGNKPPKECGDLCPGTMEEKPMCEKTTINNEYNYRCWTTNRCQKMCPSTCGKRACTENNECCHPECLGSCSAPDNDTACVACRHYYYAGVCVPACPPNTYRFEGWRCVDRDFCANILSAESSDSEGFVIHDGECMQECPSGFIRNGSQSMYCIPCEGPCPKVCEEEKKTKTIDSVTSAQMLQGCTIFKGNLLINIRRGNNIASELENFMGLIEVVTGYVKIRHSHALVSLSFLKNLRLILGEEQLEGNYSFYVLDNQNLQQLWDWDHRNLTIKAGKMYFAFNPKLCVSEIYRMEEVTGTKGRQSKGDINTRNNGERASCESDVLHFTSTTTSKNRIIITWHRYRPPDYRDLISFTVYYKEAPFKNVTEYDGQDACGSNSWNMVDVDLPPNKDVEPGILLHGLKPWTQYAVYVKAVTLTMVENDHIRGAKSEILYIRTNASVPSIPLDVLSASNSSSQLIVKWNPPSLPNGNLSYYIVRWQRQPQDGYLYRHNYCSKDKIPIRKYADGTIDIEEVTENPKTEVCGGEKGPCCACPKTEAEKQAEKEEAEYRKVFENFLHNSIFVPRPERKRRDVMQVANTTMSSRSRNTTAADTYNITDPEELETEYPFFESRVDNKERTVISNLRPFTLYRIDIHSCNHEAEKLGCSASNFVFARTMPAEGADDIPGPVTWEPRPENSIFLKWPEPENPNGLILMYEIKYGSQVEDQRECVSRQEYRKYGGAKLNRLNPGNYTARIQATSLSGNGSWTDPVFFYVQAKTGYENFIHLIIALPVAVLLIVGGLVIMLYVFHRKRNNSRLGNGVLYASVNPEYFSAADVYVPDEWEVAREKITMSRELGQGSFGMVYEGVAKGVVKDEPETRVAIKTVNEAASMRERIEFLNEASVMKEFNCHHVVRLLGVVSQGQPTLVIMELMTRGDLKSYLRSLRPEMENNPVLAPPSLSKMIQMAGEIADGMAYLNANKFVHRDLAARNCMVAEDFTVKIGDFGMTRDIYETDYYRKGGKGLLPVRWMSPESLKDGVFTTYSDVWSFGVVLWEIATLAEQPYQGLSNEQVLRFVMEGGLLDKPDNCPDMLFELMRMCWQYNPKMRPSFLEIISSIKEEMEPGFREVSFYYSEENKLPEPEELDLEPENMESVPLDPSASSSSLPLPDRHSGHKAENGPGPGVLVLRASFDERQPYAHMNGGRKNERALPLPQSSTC
Protocol: as §2

IKK-beta = target: T7, IKK-beta (Homo sapiens, UniProt O14920); experiment: ProQinase kinase panel; format: biochemical; conditions: read-out: Inh (%) at 1µM, IKK-beta
T7 construct: purchased ProQinase
T7 sequence (O14920 whole entry): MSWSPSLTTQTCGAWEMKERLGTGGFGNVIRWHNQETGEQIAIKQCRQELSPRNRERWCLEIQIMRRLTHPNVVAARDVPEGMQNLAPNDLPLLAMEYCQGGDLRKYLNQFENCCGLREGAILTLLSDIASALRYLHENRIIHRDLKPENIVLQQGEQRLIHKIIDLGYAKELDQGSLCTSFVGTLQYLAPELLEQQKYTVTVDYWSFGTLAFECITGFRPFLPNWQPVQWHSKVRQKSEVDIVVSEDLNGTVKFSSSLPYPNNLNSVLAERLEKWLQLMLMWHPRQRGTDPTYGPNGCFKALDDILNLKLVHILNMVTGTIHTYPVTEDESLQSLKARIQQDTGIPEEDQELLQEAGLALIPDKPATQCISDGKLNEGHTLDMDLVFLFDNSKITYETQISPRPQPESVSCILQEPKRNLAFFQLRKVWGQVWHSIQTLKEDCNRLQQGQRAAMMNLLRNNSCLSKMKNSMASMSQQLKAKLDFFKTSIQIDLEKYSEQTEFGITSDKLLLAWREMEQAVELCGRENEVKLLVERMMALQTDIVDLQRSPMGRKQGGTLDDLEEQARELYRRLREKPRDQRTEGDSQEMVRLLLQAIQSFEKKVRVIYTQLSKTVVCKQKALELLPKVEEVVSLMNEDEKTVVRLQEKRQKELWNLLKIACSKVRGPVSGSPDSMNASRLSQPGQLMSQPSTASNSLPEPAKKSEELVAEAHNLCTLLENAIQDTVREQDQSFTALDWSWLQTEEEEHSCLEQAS
Protocol: as §2

MEK1 = target: T8, MEK1 (Homo sapiens, UniProt Q02750); experiment: ProQinase kinase panel; format: biochemical; conditions: read-out: Inh (%) at 1µM, MEK1
T8 construct: purchased ProQinase
T8 sequence (Q02750 whole entry): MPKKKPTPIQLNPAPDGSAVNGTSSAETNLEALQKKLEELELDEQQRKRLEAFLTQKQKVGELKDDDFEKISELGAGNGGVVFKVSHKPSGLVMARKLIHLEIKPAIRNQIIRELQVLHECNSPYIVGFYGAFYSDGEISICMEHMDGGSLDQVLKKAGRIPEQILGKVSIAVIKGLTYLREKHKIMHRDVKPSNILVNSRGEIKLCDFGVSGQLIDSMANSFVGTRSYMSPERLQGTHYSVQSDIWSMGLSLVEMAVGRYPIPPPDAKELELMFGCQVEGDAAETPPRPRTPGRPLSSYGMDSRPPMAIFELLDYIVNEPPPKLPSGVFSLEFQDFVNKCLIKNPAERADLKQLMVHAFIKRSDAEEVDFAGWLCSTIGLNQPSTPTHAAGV
Protocol: as §2

IPSCs = tested on: IPSCs; set-up: method as in PMID 25971796; conditions: cited from earlier work
[6] = 1 h, 1 h, read-out: Inhibition pAKT (Ser 473) with regard to DMSO
[7] = 4 h, 4 h, read-out: Inhibition pAKT (Ser 473) with regard to DMSO
[8] = 8 h, 8 h, read-out: Inhibition pAKT (Ser 473) with regard to DMSO
[9] = 16 h, 16 h, read-out: Inhibition pAKT (Ser 473) with regard to DMSO
[10] = 24 h, 24 h, read-out: Inhibition pAKT (Ser 473) with regard to DMSO

SMILES	IC50 (PI3K (p110α))	p-AKT S473 inhibition (in words) [1]	inhibition at 10 µM [1, 6]	inhibition at 10 µM [1, 7]	inhibition at 10 µM [1, 8]	inhibition at 10 µM [1, 9]	inhibition at 10 µM [1, 10]	Inhibition of TRF1 foci (in words) [2]	TRF1 levels as compared to bortezomib/DMSO-treated control cells [2]	TRF1 protein levels in nuclear extracts [3]	Inhibition of PI3K downstream targets PRAS40 (T246) and pS6 (S235/236) (in words) [4]	Inhibition of any kinase of the 24 kinase panel (in words) [5]	inhibition at 1 µM (CHK1)	inhibition at 1 µM (CHK2)	inhibition at 1 µM (FAK)	inhibition at 1 µM (IGF1-R)	inhibition at 1 µM (IKK-beta)	inhibition at 1 µM (MEK1)	Formation of MTS in IPSCs (IPSCs)	also measured
CS(=O)(=O)N1CCN(Cc2cc3c(N4CCOCC4)nc(-c4cnc(N)nc4)cn3n2)CC1 [ETP-47037]	0.99 nM	strongly inhibited	92%	97%	96%	97%	94%	efficient inhibition of TRF1 foci	significantly lower	significantly decreased	bona fide inhibitors of the PI3K/AKT axis	negligible inhibition of any kinase tested	15.5%	0.5%	14.5%	2%	1%	-15%	induce formation of MTS	IC50 (mTOR (FRAP1); as given in the text): 1700 nM
Cc1cnc2c(N3CCOCC3)nc(-c3ccc(NC(=O)Nc4ccc(C(=O)N5CCN(C)CC5)cc4)cc3)cn12 [ETP-47228]	2.6 nM	strongly inhibited	90%	93%	78%	66%	59%	efficient inhibition of TRF1 foci	significantly lower	significantly decreased	bona fide inhibitors of the PI3K/AKT axis	negligible inhibition of any kinase tested	-11.5%	3%	-7.5%	-19%	-10%	-3%	induce formation of MTS	IC50 (mTOR (FRAP1); internal data): 443 nM; inhibition at 10 µM ([1]; read-out: Decrease of p-AKT S473 inhibition after 24 h as compared to 1-h treatment): 35%
